Reference: patent US20100179158A1, “INHIBITORS OF CYCLIC AMP PHOSPHODIESTERASES” (priority 2007, published 2010)

Experiments:
[1] = target: T1, PDE4A1 (Mus musculus, UniProt O89084); test: IC50 on PDE4A1; type: biochemical, murine; conditions: read-out: IC50, PDE 4A1
T1 construct: targets used in the assays are full-length proteins (as opposed to simply the catalytic domain); expressed in transfected cells; host or cells: Schizosaccharomyces pombe, gene integrated at the cgs2 locus
T1 sequence (O89084 1-610 isoform O89084-2): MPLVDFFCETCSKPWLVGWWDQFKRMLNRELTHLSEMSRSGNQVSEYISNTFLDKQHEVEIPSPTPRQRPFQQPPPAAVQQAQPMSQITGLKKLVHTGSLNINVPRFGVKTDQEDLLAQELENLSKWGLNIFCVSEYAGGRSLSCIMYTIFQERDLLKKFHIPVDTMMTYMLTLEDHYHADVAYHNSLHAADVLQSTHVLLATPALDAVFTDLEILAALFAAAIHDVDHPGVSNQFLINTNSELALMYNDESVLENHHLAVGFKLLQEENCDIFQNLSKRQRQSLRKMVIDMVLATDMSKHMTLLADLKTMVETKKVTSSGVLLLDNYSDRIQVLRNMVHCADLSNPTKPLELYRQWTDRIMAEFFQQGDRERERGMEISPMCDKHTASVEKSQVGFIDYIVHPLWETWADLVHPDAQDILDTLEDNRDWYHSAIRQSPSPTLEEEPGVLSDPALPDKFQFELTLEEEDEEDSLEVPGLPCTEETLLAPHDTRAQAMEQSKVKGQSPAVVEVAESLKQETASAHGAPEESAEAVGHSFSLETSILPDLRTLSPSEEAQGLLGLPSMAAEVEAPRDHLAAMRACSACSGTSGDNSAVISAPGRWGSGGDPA

[2] = target: T2, PDE4B3 (Mus musculus, UniProt Q8VBU5); test: cAMP assay in yeast strain expressing PDE4B3; type: cell-based, murine
T2 construct: targets used in the assays are full-length proteins (as opposed to simply the catalytic domain); expressed in transfected cells; host or cells: Schizosaccharomyces pombe, gene integrated at the cgs2 locus
T2 sequence (Q8VBU5 1-721): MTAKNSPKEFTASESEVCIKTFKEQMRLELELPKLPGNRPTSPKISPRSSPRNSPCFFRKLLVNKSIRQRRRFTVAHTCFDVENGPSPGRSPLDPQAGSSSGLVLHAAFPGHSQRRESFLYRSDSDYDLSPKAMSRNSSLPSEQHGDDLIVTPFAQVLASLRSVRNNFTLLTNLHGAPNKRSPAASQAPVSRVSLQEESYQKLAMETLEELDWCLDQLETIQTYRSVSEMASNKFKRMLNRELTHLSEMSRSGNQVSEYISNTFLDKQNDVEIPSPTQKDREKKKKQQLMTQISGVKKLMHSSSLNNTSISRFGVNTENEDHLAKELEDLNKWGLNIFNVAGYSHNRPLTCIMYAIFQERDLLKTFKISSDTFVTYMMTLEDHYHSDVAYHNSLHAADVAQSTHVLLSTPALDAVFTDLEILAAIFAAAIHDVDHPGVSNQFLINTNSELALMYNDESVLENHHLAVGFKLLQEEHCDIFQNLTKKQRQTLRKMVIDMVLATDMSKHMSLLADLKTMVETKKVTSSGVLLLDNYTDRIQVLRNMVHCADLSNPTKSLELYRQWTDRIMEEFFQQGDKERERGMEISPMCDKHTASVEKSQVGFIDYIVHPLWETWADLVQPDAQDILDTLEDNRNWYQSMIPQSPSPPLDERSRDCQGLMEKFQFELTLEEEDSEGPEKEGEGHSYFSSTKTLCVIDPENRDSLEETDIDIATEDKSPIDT

Cc1ccc2c(c1)c1nc3ccccc3nc1n2C(C)C [Compound 41]
IC50 [1]: 650 nM

COC(=O)C1=C(C)N(C2CCCCC2)C(=O)/C1=C\c1cccs1 [Compound 22]
cAMP Response (% rolipram), PDE 4B3 [2]: 51.00 % rolipram

COC(=O)C1=C(C)N(c2ccccc2Cl)C(=O)/C1=C\c1cccs1 [Compound 27]
cAMP Response (% rolipram), PDE 4B3 [2]: 71.00 % rolipram
IC50 [1]: 100 nM
